PMC6409085, “Three odorant-binding proteins are involved in the behavioral response of Sogatella furcifera to rice plant volatiles” (PeerJ, 2019)
Several values for one entry are separate records, joined by “and”; a condition that tells them apart may be missing. Identical values can stand only once.

Key:
SfurOBP1 = SfurOBP1 (Sogatella furcifera, UniProt V5T8N5); experiment: biochemical; assay type: binding; settings: for Fluorescence competitive binding assay, fluorescence intensity: OBP1, three replicate columns
Chain of SfurOBP1 (V5T8N5 entry or part of it): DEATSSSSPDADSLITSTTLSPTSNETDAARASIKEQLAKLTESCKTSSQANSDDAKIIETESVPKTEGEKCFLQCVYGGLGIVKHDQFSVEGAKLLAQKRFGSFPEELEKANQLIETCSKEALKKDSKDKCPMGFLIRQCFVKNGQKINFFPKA
How it was run: (§1)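 1-NPN displacement assay with odorant competitor at 2–20 µM; protein and probe both 2.0 µM at pH 7.4. Ki is calculated from IC50 using the protein/1-NPN dissociation constant.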

SfurOBP11 = SfurOBP11 (Sogatella furcifera, UniProt V5T6E3); experiment: biochemical; assay type: binding
Chain of SfurOBP11 (V5T6E3 entry or part of it): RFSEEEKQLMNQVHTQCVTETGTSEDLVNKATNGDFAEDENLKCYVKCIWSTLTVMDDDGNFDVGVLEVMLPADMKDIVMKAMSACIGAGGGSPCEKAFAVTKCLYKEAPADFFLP
How it was run: as §1

SfurOBP2 = SfurOBP2 (Sogatella furcifera, UniProt V5T759); experiment: biochemical; assay type: binding
Chain of SfurOBP2 (V5T759 entry or part of it): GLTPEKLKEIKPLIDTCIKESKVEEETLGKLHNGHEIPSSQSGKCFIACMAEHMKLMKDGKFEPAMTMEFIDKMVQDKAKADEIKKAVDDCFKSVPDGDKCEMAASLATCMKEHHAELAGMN
How it was run: as §1

SfurOBP3 = SfurOBP3 (Sogatella furcifera, UniProt V5T818); experiment: biochemical; assay type: binding; settings: for Fluorescence competitive binding assay, fluorescence intensity: OBP3, three replicate columns
Chain of SfurOBP3 (V5T818 entry or part of it): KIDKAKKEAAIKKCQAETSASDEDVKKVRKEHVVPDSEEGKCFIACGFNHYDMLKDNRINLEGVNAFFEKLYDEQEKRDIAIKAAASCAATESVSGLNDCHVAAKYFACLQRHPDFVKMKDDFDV
How it was run: as §1

S. furcifera adults = experiment: Y-tube olfactometer behavioral trials; assay type: in vivo, Sogatella furcifera; settings: odorant 50 µL/L vs hexane; adults
How it was run: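 Single S. furcifera adults (2 days post-emergence, starved 0.5 h) chose between odorant (100 µL of 50 µL/L on filter paper) and hexane control in a glass Y-tube, charcoal-filtered humidified air 300 mL/min per arm, 25 ± 1 °C, 50% RH. Choice scored if insect passed half an arm and stayed >1 min within 10 min; 45 insects per compound, chi-squared test.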

## CCCCCCCCCCCCCCCCCCC [n-nonadecane]
SfurOBP1; ligand concentration 2 (μM)
  Fluorescence competitive binding assay, fluorescence intensity: 5361 and 5140 and 5582
SfurOBP1; ligand concentration 4 (μM)
  Fluorescence competitive binding assay, fluorescence intensity: 6690 and 6608 and 6742
SfurOBP1; ligand concentration 6 (μM)
  Fluorescence competitive binding assay, fluorescence intensity: 8870 and 9897 and 7869
SfurOBP1; ligand concentration 8 (μM)
  Fluorescence competitive binding assay, fluorescence intensity: 7482 and 6593 and 11079
SfurOBP1; ligand concentration 10 (μM)
  Fluorescence competitive binding assay, fluorescence intensity: 7327 and 7941 and 8862
SfurOBP1; ligand concentration 12 (μM)
  Fluorescence competitive binding assay, fluorescence intensity: 8260 and 9027 and 8555
SfurOBP1; ligand concentration 14 (μM)
  Fluorescence competitive binding assay, fluorescence intensity: 9439 and 7708 and 9780
SfurOBP1; ligand concentration 16 (μM)
  Fluorescence competitive binding assay, fluorescence intensity: 8450 and 9204 and 7552
SfurOBP1; ligand concentration 18 (μM)
  Fluorescence competitive binding assay, fluorescence intensity: 9810 and 13450 and 9951
SfurOBP1; ligand concentration 20 (μM)
  Fluorescence competitive binding assay, fluorescence intensity: 10406 and 10007 and 8824
SfurOBP1; SfurOBP1, protein and 1-NPN both 2.0 µM, competitor 2-20 µM, read-out: IC50
  IC50: > 20 µM
SfurOBP11; SfurOBP11, protein and 1-NPN both 2.0 µM, competitor 2-20 µM, read-out: IC50
  IC50: > 20 µM
SfurOBP11; ligand concentration 2, replicate 1
  Fluorescence intensity, fluorescence competitive binding assay, OBP11: 39005
SfurOBP11; ligand concentration 2, replicate 2
  Fluorescence intensity, fluorescence competitive binding assay, OBP11: 36085
SfurOBP11; ligand concentration 2, replicate 3
  Fluorescence intensity, fluorescence competitive binding assay, OBP11: 36144
SfurOBP11; ligand concentration 4, replicate 1
  Fluorescence intensity, fluorescence competitive binding assay, OBP11: 38725
SfurOBP11; ligand concentration 4, replicate 2
  Fluorescence intensity, fluorescence competitive binding assay, OBP11: 39209
SfurOBP11; ligand concentration 4, replicate 3
  Fluorescence intensity, fluorescence competitive binding assay, OBP11: 36494
SfurOBP11; ligand concentration 6, replicate 1
  Fluorescence intensity, fluorescence competitive binding assay, OBP11: 38941
SfurOBP11; ligand concentration 6, replicate 2
  Fluorescence intensity, fluorescence competitive binding assay, OBP11: 37869
SfurOBP11; ligand concentration 6, replicate 3
  Fluorescence intensity, fluorescence competitive binding assay, OBP11: 35504
SfurOBP11; ligand concentration 8, replicate 1
  Fluorescence intensity, fluorescence competitive binding assay, OBP11: 38326
SfurOBP11; ligand concentration 8, replicate 2
  Fluorescence intensity, fluorescence competitive binding assay, OBP11: 38320
SfurOBP11; ligand concentration 8, replicate 3
  Fluorescence intensity, fluorescence competitive binding assay, OBP11: 34260
SfurOBP11; ligand concentration 10, replicate 1
  Fluorescence intensity, fluorescence competitive binding assay, OBP11: 39470
SfurOBP11; ligand concentration 10, replicate 2
  Fluorescence intensity, fluorescence competitive binding assay, OBP11: 35190
SfurOBP11; ligand concentration 10, replicate 3
  Fluorescence intensity, fluorescence competitive binding assay, OBP11: 34723
SfurOBP11; ligand concentration 12, replicate 1
  Fluorescence intensity, fluorescence competitive binding assay, OBP11: 35740
SfurOBP11; ligand concentration 12, replicate 2
  Fluorescence intensity, fluorescence competitive binding assay, OBP11: 35339
SfurOBP11; ligand concentration 12, replicate 3
  Fluorescence intensity, fluorescence competitive binding assay, OBP11: 34546
SfurOBP11; ligand concentration 14, replicate 1
  Fluorescence intensity, fluorescence competitive binding assay, OBP11: 33030
SfurOBP11; ligand concentration 14, replicate 2
  Fluorescence intensity, fluorescence competitive binding assay, OBP11: 32494
SfurOBP11; ligand concentration 14, replicate 3
  Fluorescence intensity, fluorescence competitive binding assay, OBP11: 31487
SfurOBP11; ligand concentration 16, replicate 1
  Fluorescence intensity, fluorescence competitive binding assay, OBP11: 29383
SfurOBP11; ligand concentration 16, replicate 2
  Fluorescence intensity, fluorescence competitive binding assay, OBP11: 30154
SfurOBP11; ligand concentration 16, replicate 3
  Fluorescence intensity, fluorescence competitive binding assay, OBP11: 29504
SfurOBP11; ligand concentration 18, replicate 1
  Fluorescence intensity, fluorescence competitive binding assay, OBP11: 32894
SfurOBP11; ligand concentration 18, replicate 2
  Fluorescence intensity, fluorescence competitive binding assay, OBP11: 34140
SfurOBP11; ligand concentration 18, replicate 3
  Fluorescence intensity, fluorescence competitive binding assay, OBP11: 29208
SfurOBP11; ligand concentration 20, replicate 1
  Fluorescence intensity, fluorescence competitive binding assay, OBP11: 31537
SfurOBP11; ligand concentration 20, replicate 2
  Fluorescence intensity, fluorescence competitive binding assay, OBP11: 29929
SfurOBP11; ligand concentration 20, replicate 3
  Fluorescence intensity, fluorescence competitive binding assay, OBP11: 28655
SfurOBP2; SfurOBP2, protein and 1-NPN both 2.0 µM, competitor 2-20 µM, read-out: IC50
  IC50: > 20 µM
SfurOBP2; ligand concentration 2 (unit not given), replicate column 1 of 3
  Fluorescence competitive binding assay, OBP2 (raw fluorescence reading): 22779
SfurOBP2; ligand concentration 2 (unit not given), replicate column 2 of 3
  Fluorescence competitive binding assay, OBP2 (raw fluorescence reading): 20086
SfurOBP2; ligand concentration 2 (unit not given), replicate column 3 of 3
  Fluorescence competitive binding assay, OBP2 (raw fluorescence reading): 21018
SfurOBP2; ligand concentration 4 (unit not given), replicate column 1 of 3
  Fluorescence competitive binding assay, OBP2 (raw fluorescence reading): 21686
SfurOBP2; ligand concentration 4 (unit not given), replicate column 2 of 3
  Fluorescence competitive binding assay, OBP2 (raw fluorescence reading): 22088
SfurOBP2; ligand concentration 4 (unit not given), replicate column 3 of 3
  Fluorescence competitive binding assay, OBP2 (raw fluorescence reading): 20918
SfurOBP2; ligand concentration 6 (unit not given), replicate column 1 of 3
  Fluorescence competitive binding assay, OBP2 (raw fluorescence reading): 24120
SfurOBP2; ligand concentration 6 (unit not given), replicate column 2 of 3
  Fluorescence competitive binding assay, OBP2 (raw fluorescence reading): 23625
SfurOBP2; ligand concentration 6 (unit not given), replicate column 3 of 3
  Fluorescence competitive binding assay, OBP2 (raw fluorescence reading): 22791
SfurOBP2; ligand concentration 8 (unit not given), replicate column 1 of 3
  Fluorescence competitive binding assay, OBP2 (raw fluorescence reading): 22496
SfurOBP2; ligand concentration 8 (unit not given), replicate column 2 of 3
  Fluorescence competitive binding assay, OBP2 (raw fluorescence reading): 24832
SfurOBP2; ligand concentration 8 (unit not given), replicate column 3 of 3
  Fluorescence competitive binding assay, OBP2 (raw fluorescence reading): 23266
SfurOBP2; ligand concentration 10 (unit not given), replicate column 1 of 3
  Fluorescence competitive binding assay, OBP2 (raw fluorescence reading): 22518
SfurOBP2; ligand concentration 10 (unit not given), replicate column 2 of 3
  Fluorescence competitive binding assay, OBP2 (raw fluorescence reading): 23515
SfurOBP2; ligand concentration 10 (unit not given), replicate column 3 of 3
  Fluorescence competitive binding assay, OBP2 (raw fluorescence reading): 22157
SfurOBP2; ligand concentration 12 (unit not given), replicate column 1 of 3
  Fluorescence competitive binding assay, OBP2 (raw fluorescence reading): 23732
SfurOBP2; ligand concentration 12 (unit not given), replicate column 2 of 3
  Fluorescence competitive binding assay, OBP2 (raw fluorescence reading): 24191
SfurOBP2; ligand concentration 12 (unit not given), replicate column 3 of 3
  Fluorescence competitive binding assay, OBP2 (raw fluorescence reading): 22198
SfurOBP2; ligand concentration 14 (unit not given), replicate column 1 of 3
  Fluorescence competitive binding assay, OBP2 (raw fluorescence reading): 22713
SfurOBP2; ligand concentration 14 (unit not given), replicate column 2 of 3
  Fluorescence competitive binding assay, OBP2 (raw fluorescence reading): 20356
SfurOBP2; ligand concentration 14 (unit not given), replicate column 3 of 3
  Fluorescence competitive binding assay, OBP2 (raw fluorescence reading): 21973
SfurOBP2; ligand concentration 16 (unit not given), replicate column 1 of 3
  Fluorescence competitive binding assay, OBP2 (raw fluorescence reading): 21871
SfurOBP2; ligand concentration 16 (unit not given), replicate column 2 of 3
  Fluorescence competitive binding assay, OBP2 (raw fluorescence reading): 23043
SfurOBP2; ligand concentration 16 (unit not given), replicate column 3 of 3
  Fluorescence competitive binding assay, OBP2 (raw fluorescence reading): 23038
SfurOBP2; ligand concentration 18 (unit not given), replicate column 1 of 3
  Fluorescence competitive binding assay, OBP2 (raw fluorescence reading): 25864
SfurOBP2; ligand concentration 18 (unit not given), replicate column 2 of 3
  Fluorescence competitive binding assay, OBP2 (raw fluorescence reading): 26767
SfurOBP2; ligand concentration 18 (unit not given), replicate column 3 of 3
  Fluorescence competitive binding assay, OBP2 (raw fluorescence reading): 25338
SfurOBP2; ligand concentration 20 (unit not given), replicate column 1 of 3
  Fluorescence competitive binding assay, OBP2 (raw fluorescence reading): 26712
SfurOBP2; ligand concentration 20 (unit not given), replicate column 2 of 3
  Fluorescence competitive binding assay, OBP2 (raw fluorescence reading): 23676
SfurOBP2; ligand concentration 20 (unit not given), replicate column 3 of 3
  Fluorescence competitive binding assay, OBP2 (raw fluorescence reading): 24323
SfurOBP3; ligand concentration 2
  Fluorescence competitive binding assay, fluorescence intensity: 81706 and 89895 and 90926
SfurOBP3; ligand concentration 4
  Fluorescence competitive binding assay, fluorescence intensity: 92466 and 96932 and 93745
SfurOBP3; ligand concentration 6
  Fluorescence competitive binding assay, fluorescence intensity: 84153 and 91141 and 92184
SfurOBP3; ligand concentration 8
  Fluorescence competitive binding assay, fluorescence intensity: 88550 and 83959 and 85903
SfurOBP3; ligand concentration 10
  Fluorescence competitive binding assay, fluorescence intensity: 84955 and 81246 and 84347
SfurOBP3; ligand concentration 12
  Fluorescence competitive binding assay, fluorescence intensity: 79099 and 81968 and 85076
SfurOBP3; ligand concentration 14
  Fluorescence competitive binding assay, fluorescence intensity: 78930 and 78937 and 80614
SfurOBP3; ligand concentration 16
  Fluorescence competitive binding assay, fluorescence intensity: 67688 and 71739 and 72376
SfurOBP3; ligand concentration 18
  Fluorescence competitive binding assay, fluorescence intensity: 93819 and 87996 and 91999
SfurOBP3; ligand concentration 20
  Fluorescence competitive binding assay, fluorescence intensity: 87679 and 80588 and 71651
SfurOBP3; SfurOBP3, protein and 1-NPN both 2.0 µM, competitor 2-20 µM, read-out: IC50
  IC50: > 20 µM
S. furcifera adults
  number of insects choosing hexane arm: 13
  number of insects choosing volatilies arm: 15
  number of insects failed (no choice): 12
